Molecules are shown by their SMILES.

One molecule from US8324225B2, “Pyrrolopyrimidine compounds and their uses” (Novartis AG, priority 2006, dated 2012) can be followed below.

What all share (type): biochemical
Test [1] addresses CDK2/Cyclin-A kinase complex (Homo sapiens, UniProt P24941). Briefly: CDK2 IMAP fluorescence polarization assay. The following applies: Table E; read-out: CDK2cyA IMAP/IC50 [umol l − 1]. The source says: In order to test the CDK2 activity of the compounds of the invention, the CDK2 assay is a fluorescence polarization assay, where the enzyme is a purified active CDK2/Cyclin-A kinase complex and the substrate is a synthesized peptide derived from Histone H1. This assay utilizes the IMAP technology from Molecular Devices. The active CDK2/Cyclin-A complex phosphorylates the peptide substrate, which is conjugated with the TAMRA tag. The phosphorylated site is then recognized by a metal containing molecule that interacts with the TAMRA tag to induce a high fluorescence polarization. The compounds that inhibit the CDK2 kinase activity would inhibit the fluorescence output of the assay.
In general terms: In fluorescence polarisation assays a small probe gives low polarisation when free and higher when bound to something large.

Another test addresses CDK4 (Homo sapiens, UniProt P11802). Briefly: CDK4 HTRF. The following applies: Table E; read-out: CDK4 HTRF/IC50 [umol l − 1]. For orientation: In TR-FRET formats the signal depends on donor and acceptor labels being close together.
For the next test, the target named is hCDK1/B (Homo sapiens, UniProt P06493). Briefly: hCDK1/B. Particulars: Table E; read-out: hCDK1/B/IC50 [umol l − 1].
Chain of hCDK1/B (P06493 whole entry): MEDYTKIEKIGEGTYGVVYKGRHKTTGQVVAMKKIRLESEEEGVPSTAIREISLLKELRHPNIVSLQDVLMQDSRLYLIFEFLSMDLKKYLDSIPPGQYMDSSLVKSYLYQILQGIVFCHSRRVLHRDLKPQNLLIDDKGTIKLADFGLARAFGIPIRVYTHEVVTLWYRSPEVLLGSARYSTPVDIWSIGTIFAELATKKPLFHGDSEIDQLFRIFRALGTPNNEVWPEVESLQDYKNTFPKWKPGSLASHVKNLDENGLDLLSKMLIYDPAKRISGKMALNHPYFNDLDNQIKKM
Chain of hCDK1/B (P14635 whole entry partner): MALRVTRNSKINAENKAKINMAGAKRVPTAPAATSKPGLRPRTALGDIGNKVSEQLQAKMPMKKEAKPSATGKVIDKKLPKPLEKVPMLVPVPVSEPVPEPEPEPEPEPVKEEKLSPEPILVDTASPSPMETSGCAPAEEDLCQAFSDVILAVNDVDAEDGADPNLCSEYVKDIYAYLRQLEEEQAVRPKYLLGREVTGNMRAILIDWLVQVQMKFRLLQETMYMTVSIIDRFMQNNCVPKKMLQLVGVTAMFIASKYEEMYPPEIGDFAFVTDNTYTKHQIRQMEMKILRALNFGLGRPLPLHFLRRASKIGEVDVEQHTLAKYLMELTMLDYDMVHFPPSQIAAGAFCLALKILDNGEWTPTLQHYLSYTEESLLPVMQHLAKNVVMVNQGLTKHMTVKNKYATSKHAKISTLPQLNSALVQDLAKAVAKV

Chain of CDK4 (P11802 whole entry): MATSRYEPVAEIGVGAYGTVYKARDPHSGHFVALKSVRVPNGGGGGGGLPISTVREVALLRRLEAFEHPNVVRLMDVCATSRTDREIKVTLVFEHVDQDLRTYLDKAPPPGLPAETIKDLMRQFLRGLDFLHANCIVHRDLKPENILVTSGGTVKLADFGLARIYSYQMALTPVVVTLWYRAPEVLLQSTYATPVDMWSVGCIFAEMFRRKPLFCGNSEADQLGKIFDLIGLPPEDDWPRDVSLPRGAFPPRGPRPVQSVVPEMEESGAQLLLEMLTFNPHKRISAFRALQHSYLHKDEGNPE
Chain of CDK4 (P24385 whole entry partner): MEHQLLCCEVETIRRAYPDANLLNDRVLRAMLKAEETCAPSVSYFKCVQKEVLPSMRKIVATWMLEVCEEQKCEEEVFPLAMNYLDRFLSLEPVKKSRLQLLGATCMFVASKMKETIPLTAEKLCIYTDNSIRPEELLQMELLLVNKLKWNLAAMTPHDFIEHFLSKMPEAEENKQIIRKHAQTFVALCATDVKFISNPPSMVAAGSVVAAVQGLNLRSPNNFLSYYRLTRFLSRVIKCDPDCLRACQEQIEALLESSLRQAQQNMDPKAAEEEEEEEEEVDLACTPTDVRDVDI

As for `Cc1cn(C2CCCC2)c2nc(Nc3ccc4[nH]ccc4c3)ncc12` [Example 282], the IC50 in test [1] is over 15 µM; at CDK4 it was over 10 µM; at hCDK1/B, over 15 µM.
